Measurements reported in US10532987B2, “Compounds and methods for inducing browning of white adipose tissue” (GUANGZHOU INSTITUTES OF BIOMEDICINE AND HEALTH, CHINESE …, priority 2015, dated 2020).

Experiments:
[1] = tested on: Ucp1; test: UCP1 luciferase assay (Ucp1 up-regulation in differentiated inguinal adipocytes of Ucp1-luciferase knock-in mice); type: cell-based; conditions: Mus musculus, Adipocyte, 48 h; at 3 μM; 2 days treatment; luciferase activity; read-out: Ucp1 activation fold/corresponding concentration
Procedure: TEST EXAMPLE 1 UCP1 Luciferase Assay
Evaluating Compounds that Induce Ucp1 Up-Regulation
Ucp1-luciferase knock-in mice will be housed in cages and fed on standard chow diets (the detailed procedures please see reference 14). The 8-week-old mice will be killed by the cervical dislocation and put into 75% alcohol for 5 minutes. The inguinal adipose tissue will be dissected out and transferred to the three 10-cm petri dishes and washed with PBS for three times. The adipose tissue will be dissected and minced on a 10-cm petri dish for several minutes and then pipetted into 20 ml 0.1% collagenase solution in 50 ml conical tubes and digested at 37° C. for 1 hour. Next, 20 ml culture medium will be added to terminate the digestion and centrifuged for 10 minutes at 1000 rpm respectively. The supernatants will be removed and the pellets re-suspended in 10 mL culture medium and plated into 10-cm plates. The cells will be left to adhere to the plates overnight and the culture medium will be changed every other day. The confluent cells will be trypsinized, counted and plated to 24-well plate (5×10^4 cells/well). The cells will be washed and re-fed the next day (as day −2). Two days later (day 0), the cells will usually become confluent and be induced to differentiate with MDIR medium. On day 2, the medium will be changed to IR medium and re-fed every 2 days. Complete differentiation is usually achieved by day 10. On day 10, the medium will be changed to the culture medium of 10% FBS/DMEM with indicated drugs along with the positive and negative controls for 2 days. The media will be removed and the cells washed with 1 ml PBS per well three times. Then 100 μl lysis buffer will be used to lyse the cells at 4° C. for 1 hour. 30 μl culture medium, 30 μl cell lysates and 60 μl Steady-Glo® Reagent were added to a well of 96-well-plate and the luminescence will be measured using a luminometer. The protein concentration will be determined using 20 μl cell lysates and specific activity of luciferase will be tabulated and data analyzed.

[2] = tested on: white adipose tissue; test: High fat diet induced obesity mouse model; hematoxylin and eosin staining and UCP1 immunochemistry of adipose tissue; type: in vivo, mice; conditions: 50 mg/kg daily gavage, compared with control group
Procedure: 8-week-old male mice (57BL/6J) were housed in metabolism cages and maintained on a 12 h lightdark cycle at 23° C. and fed high fat diet (HFD) (21.9 kJ/g, 60% of energy as fat, 20% of energy as protein, 20% of energy as carbohydrate; D12492; Research Diet, New Brunswick, N.J., USA) for 8 weeks. Then, diets induced obese mice were randomized into two groups according to glucose levels and body weight and gavaged with daily indicated drugs (50 mg/kg) or vehicle. Food intake and body weight was measured weekly. All experiments with animals were approved by the Animal Care and Use Committee of Guangzhou Institute of Biomedicine and Health, Chinese Academy of Sciences.
Hematoxylin and eosin staining was performed as the standard protocol (see reference 15). As to the results, please see FIG. 1 (left panel) using compound 1 as the test compound.
Wash sections in dH2O three times for 5 minutes each. Incubate sections in 3% hydrogen peroxide for 10 minutes. Wash sections in dH2O twice for 5 minutes each, and then wash sections in wash buffer for 5 minutes. Block each section with 100-400 μl blocking solution for 1 hour at room temperature. Remove blocking solution and add 100-400 μl primary UCP1 antibody to each section. Incubate overnight at 4° C. Remove antibody solution and wash sections in wash buffer three times for 5 minutes each. […]

## COc1ccc(-c2csc(Nc3ccccn3)n2)cc1OC [Compound 1, 4-(3,4-dimethoxyphenyl)-N-(pyridin-2-yl)thiazol-2-amine]
[1]
  fold induction at 3 µM: 5.2
[2]; 16-week-old obese mice (57BL/6J) induced by high fat diet for 8 weeks
  browning of adipose tissue (hematoxylin and eosin staining and UCP1 immunochemistry): promotes browning of adipose tissue
[2]; 16-week-old obese mice induced by high fat diet for 8 weeks
  adipose tissue cell size and cell number: reduced cell size and increased cell number
